We go through one molecule from article PMC5218480 (PLoS ONE, 2017).

For the test, the system named is MV-4-11 cells. Description: Gene expression microarray analysis (Affymetrix PrimeView) and GSEA. It counts as cell-based, human. More on the design: RFU PODN (11730768_x_at) / Fold change /veh PODN (11730768_x_at) / RFU LINC00158 (11744669_a_at) / Fold change /veh LINC00158 (11744669_a_at) / RFU DUSP10 (11751237_a_at) / Fold change /veh DUSP10 (11751237_a_at) / RFU ID3 (11757404_x_at) / Fold change /veh ID3 (11757404_x_at) / RFU PLEKHG5 (11737974_s_at) / Fold change /veh PLEKHG5 (11737974_s_at) / RFU LRRC4B (11730491_at) / Fold change /veh LRRC4B (11730491_at) / RFU GIMAP4 (11747438_a_at) / Fold change /veh GIMAP4 (11747438_a_at) / RFU KRT8 (11758183_x_at) / Fold change /veh KRT8 (11758183_x_at) / RFU CNN1 (11734310_a_at) / Fold change /veh CNN1 (11734310_a_at) / RFU VPS37D (11726825_at) / Fold change /veh VPS37D (11726825_at) / RFU C10orf10 (11716522_x_at) / Fold change /veh C10orf10 (11716522_x_at) / RFU KIR2DL2 /// KIR2DL4 /// KIR2DL5A /// KIR2DL5B /// KIR2DS1 /// KIR2DS2 /// KIR2DS3 /// KIR2DS4 /// KIR3DL3 /// KIR3DL3 /// KIR3DS1 (11738374_at) / Fold change /veh KIR2DL2 /// KIR2DL4 /// KIR2DL5A /// KIR2DL5B /// KIR2DS1 /// KIR2DS2 /// KIR2DS3 /// KIR2DS4 /// KIR3DL3 /// KIR3DL3 /// KIR3DS1 (11738374_at) / RFU C1QL1 (11718748_at) / Fold change /veh C1QL1 (11718748_at) / RFU TMPRSS4 (11747572_a_at) / Fold change /veh TMPRSS4 (11747572_a_at) / RFU HAMP (11756126_x_at) / Fold change /veh HAMP (11756126_x_at) / RFU RNFT2 (11725882_a_at) / Fold change /veh RNFT2 (11725882_a_at) / RFU NR4A2 (11747474_a_at) / Fold change /veh NR4A2 (11747474_a_at) / RFU ABCC12 (11746883_a_at) / Fold change /veh ABCC12 (11746883_a_at) / RFU TMEM136 (11760407_x_at) / Fold change /veh TMEM136 (11760407_x_at) / RFU CLDN22 /// WWC2 (11732394_at) / Fold change /veh CLDN22 /// WWC2 (11732394_at) / RFU HLA-DPB1 (11760878_x_at) / Fold change /veh HLA-DPB1 (11760878_x_at) / RFU SPINT1 (11716480_a_at) / Fold change /veh SPINT1 (11716480_a_at) / RFU GAP43 (11754022_s_at) / Fold change /veh GAP43 (11754022_s_at) / RFU A4GNT (11735810_at) / Fold change /veh A4GNT (11735810_at) / RFU PRB3 (11715151_x_at) / Fold change /veh PRB3 (11715151_x_at) / RFU TUBB4B (11761932_at) / Fold change /veh TUBB4B (11761932_at) / RFU CAPN14 (11732068_a_at) / Fold change /veh CAPN14 (11732068_a_at) / RFU TMCC2 (11721928_a_at) / Fold change /veh TMCC2 (11721928_a_at) / RFU IRGQ (11745062_a_at) / Fold change /veh IRGQ (11745062_a_at) / RFU FAM174B (11720279_a_at) / Fold change /veh FAM174B (11720279_a_at) / RFU TMPRSS4 (11748680_a_at) / Fold change /veh TMPRSS4 (11748680_a_at) / RFU FAM212B (11763350_a_at) / Fold change /veh FAM212B (11763350_a_at) / RFU PLEKHG5 (11743358_a_at) / Fold change /veh PLEKHG5 (11743358_a_at) / RFU ZSCAN30 (11745921_a_at) / Fold change /veh ZSCAN30 (11745921_a_at) / RFU CMKLR1 (11741424_a_at) / Fold change /veh CMKLR1 (11741424_a_at) / RFU LOC101060620 /// MAPK8IP1 (11723275_at) / Fold change /veh LOC101060620 /// MAPK8IP1 (11723275_at) / RFU SPTSSB (11747773_x_at) / Fold change /veh SPTSSB (11747773_x_at) / RFU PRSS12 (11739890_at) / Fold change /veh PRSS12 (11739890_at) / RFU BIN1 (11741810_x_at) / Fold change /veh BIN1 (11741810_x_at) / RFU WNT11 (11732464_a_at) / Fold change /veh WNT11 (11732464_a_at) / RFU C10orf10 (11716521_a_at) / Fold change /veh C10orf10 (11716521_a_at) / RFU C5orf56 (11738089_at) / Fold change /veh C5orf56 (11738089_at) / RFU CYB561 (11721691_x_at) / Fold change /veh CYB561 (11721691_x_at) / RFU ANKRD19P (11752326_a_at) / Fold change /veh ANKRD19P (11752326_a_at) / RFU OR2T12 /// OR2T33 /// OR2T8 (11738714_s_at) / Fold change /veh OR2T12 /// OR2T33 /// OR2T8 (11738714_s_at) / RFU VCAN (11748164_a_at) / Fold change /veh VCAN (11748164_a_at) / RFU JSRP1 (11732532_at) / Fold change /veh JSRP1 (11732532_at) / RFU KRTAP10-11 (11738290_x_at) / Fold change /veh KRTAP10-11 (11738290_x_at) / RFU MYO3A (11730013_a_at) / Fold change /veh MYO3A (11730013_a_at) / RFU EBF3 (11725865_a_at) / Fold change /veh EBF3 (11725865_a_at) / RFU CAMK2N1 (11719241_x_at) / Fold change /veh CAMK2N1 (11719241_x_at) / RFU C5orf56 (11738088_a_at) / Fold change /veh C5orf56 (11738088_a_at) / RFU OLFML3 (11715873_a_at) / Fold change /veh OLFML3 (11715873_a_at) / RFU LOC100653217 /// NTM (11731650_a_at) / Fold change /veh LOC100653217 /// NTM (11731650_a_at) / RFU MAPK11 (11762145_a_at) / Fold change /veh MAPK11 (11762145_a_at) / RFU FIZ1 (11724087_x_at) / Fold change /veh FIZ1 (11724087_x_at) / RFU OASL (11726364_x_at) / Fold change /veh OASL (11726364_x_at) / RFU SOX15 (11748057_x_at) / Fold change /veh SOX15 (11748057_x_at) / RFU CD79A (11719716_a_at) / Fold change /veh CD79A (11719716_a_at) / RFU HIST1H1D (11736915_at) / Fold change /veh HIST1H1D (11736915_at) / RFU CASKIN2 (11723855_a_at) / Fold change /veh CASKIN2 (11723855_a_at) / RFU LOC730098 (11760151_x_at) / Fold change /veh LOC730098 (11760151_x_at) / RFU OR4N2 (11742367_at) / Fold change /veh OR4N2 (11742367_at) / RFU PRRT2 (11749266_a_at) / Fold change /veh PRRT2 (11749266_a_at) / RFU SNX32 (11753110_a_at) / Fold change /veh SNX32 (11753110_a_at) / RFU CDHR5 (11726645_a_at) / Fold change /veh CDHR5 (11726645_a_at) / RFU RCAN1 (11760418_a_at) / Fold change /veh RCAN1 (11760418_a_at) / RFU FAM167A (11723789_a_at) / Fold change /veh FAM167A (11723789_a_at) / RFU FAM26E (11764081_at) / Fold change /veh FAM26E (11764081_at) / RFU ISYNA1 (11749810_s_at) / Fold change /veh ISYNA1 (11749810_s_at) / RFU ACY1 (11761880_at) / Fold change /veh ACY1 (11761880_at) / RFU 11764098_at / Fold change /veh 11764098_at / RFU SAMD14 (11745864_x_at) / Fold change /veh SAMD14 (11745864_x_at) / RFU NPB (11741838_a_at) / Fold change /veh NPB (11741838_a_at) / RFU TMPRSS6 (11731388_a_at) / Fold change /veh TMPRSS6 (11731388_a_at) / RFU KRTAP10-2 (11738614_at) / Fold change /veh KRTAP10-2 (11738614_at) / RFU ARHGAP8 /// PRR5-ARHGAP8 (11727945_x_at) / Fold change /veh ARHGAP8 /// PRR5-ARHGAP8 (11727945_x_at) / RFU KRTAP5-7 /// NADSYN1 (11734609_at) / Fold change /veh KRTAP5-7 /// NADSYN1 (11734609_at) / RFU RASL12 (11751679_a_at) / Fold change /veh RASL12 (11751679_a_at) / RFU CDKN2B (11736163_a_at) / Fold change /veh CDKN2B (11736163_a_at) / RFU PRF1 (11729649_at) / Fold change /veh PRF1 (11729649_at) / RFU, ZNF638 /// ZNF638-IT1 / Fold change vs veh, ZNF638 /// ZNF638-IT1 / RFU, PANK3 / Fold change vs veh, PANK3 / RFU, SH3YL1 / Fold change vs veh, SH3YL1 / RFU, ZEB2 / Fold change vs veh, ZEB2 / RFU, NRIP1 / Fold change vs veh, NRIP1 / RFU, PTTG1IP / Fold change vs veh, PTTG1IP / RFU, CAPN2 / Fold change vs veh, CAPN2 / RFU, MED14 / Fold change vs veh, MED14 / RFU, SNORA58 / Fold change vs veh, SNORA58 / RFU, C1orf63 / Fold change vs veh, C1orf63 / RFU, LRRFIP1 / Fold change vs veh, LRRFIP1 / RFU, NDUFAF7 / Fold change vs veh, NDUFAF7 / RFU, SLC12A2 / Fold change vs veh, SLC12A2 / RFU, IBTK / Fold change vs veh, IBTK / RFU, ESF1 / Fold change vs veh, ESF1 / Fold change vs veh, TMEM50B / RFU, TAOK1 / Fold change vs veh, TAOK1 / RFU, ACBD3 / Fold change vs veh, ACBD3 / RFU, TMA16 / Fold change vs veh, TMA16 / RFU, RWDD3 / Fold change vs veh, RWDD3 / RFU, BCAT1 / Fold change vs veh, BCAT1 / RFU, EDEM3 / Fold change vs veh, EDEM3 / RFU, TMEM33 / Fold change vs veh, TMEM33 / RFU, WDR75 / Fold change vs veh, WDR75 / RFU, AHCTF1 / Fold change vs veh, AHCTF1 / RFU, TFRC / Fold change vs veh, TFRC / RFU, ZDHHC17 / Fold change vs veh, ZDHHC17 / RFU, NOM1 / Fold change vs veh, NOM1 / RFU, ARL8B / Fold change vs veh, ARL8B / RFU, ZBTB11 / Fold change vs veh, ZBTB11 / RFU, TAMM41 / Fold change vs veh, TAMM41 / RFU, KIAA1704 /// LOC100996395 / Fold change vs veh, KIAA1704 /// LOC100996395 / RFU, ING1 / Fold change vs veh, ING1 / RFU, TRMT61B / Fold change vs veh, TRMT61B / RFU, FUBP3 / Fold change vs veh, FUBP3 / RFU, TP53 / Fold change vs veh, TP53 / RFU, TNKS2 / Fold change vs veh, TNKS2 / RFU, ZFP14 / Fold change vs veh, ZFP14 / RFU, ACTR2 / Fold change vs veh, ACTR2 / RFU, PPP3R1 / Fold change vs veh, PPP3R1 / RFU, PIK3R1 / Fold change vs veh, PIK3R1 / RFU, HNRNPA1 / Fold change vs veh, HNRNPA1 / RFU, RNF170 / Fold change vs veh, RNF170 / RFU, ZNF28 / Fold change vs veh, ZNF28 / RFU, RNGTT / Fold change vs veh, RNGTT / RFU, OGT / Fold change vs veh, OGT / RFU, BRD1 / Fold change vs veh, BRD1 / RFU, MARS / Fold change vs veh, MARS / RFU, ZNF655 / Fold change vs veh, ZNF655 / RFU, FAHD1 / Fold change vs veh, FAHD1 / RFU, BDP1 / Fold change vs veh, BDP1 / RFU, LRRCC1 / Fold change vs veh, LRRCC1 / RFU, ARID1A / Fold change vs veh, ARID1A / RFU, ZNF146 / Fold change vs veh, ZNF146 / RFU, ZNF330 / Fold change vs veh, ZNF330 / RFU, GPN3 / Fold change vs veh, GPN3 / RFU, C9orf123 / Fold change vs veh, C9orf123 / RFU, N4BP2L2 / Fold change vs veh, N4BP2L2 / RFU, ARFIP1 / Fold change vs veh, ARFIP1 / RFU, FAM179B / Fold change vs veh, FAM179B / RFU, BCL10 / Fold change vs veh, BCL10 / RFU, UHRF1BP1L / Fold change vs veh, UHRF1BP1L / RFU, BET1 / Fold change vs veh, BET1 / RFU, CNOT2 / Fold change vs veh, CNOT2 / RFU, ZNF268 / Fold change vs veh, ZNF268 / Fold change vs veh, ZNF507 / RFU, DGCR2 / Fold change vs veh, DGCR2 / RFU, WDSUB1 / Fold change vs veh, WDSUB1 / Fold change vs veh, HSP90B1 /// MIR3652 / RFU, ADSS / Fold change vs veh, ADSS / RFU, GK / Fold change vs veh, GK / RFU, ZNF148 / Fold change vs veh, ZNF148 / RFU, TAF9 / Fold change vs veh, TAF9 / RFU, SLC1A5 / Fold change vs veh, SLC1A5 / RFU, SLMO2 / Fold change vs veh, SLMO2 / RFU, ABCC4 / Fold change vs veh, ABCC4 / RFU, LOC101060439 /// RAP1B / Fold change vs veh, LOC101060439 /// RAP1B / RFU, RFX7 / Fold change vs veh, RFX7 / RFU, GTPBP10 / Fold change vs veh, GTPBP10 / RFU, CNEP1R1 / Fold change vs veh, CNEP1R1 / RFU, BIVM-ERCC5 /// ERCC5 / Fold change vs veh, BIVM-ERCC5 /// ERCC5 / RFU, ILF3 / Fold change vs veh, ILF3 / RFU 11762660_at / Fold change /veh 11762660_at / RFU VCAN (11757783_s_at) / Fold change /veh VCAN (11757783_s_at) / RFU DDX43 (11728927_at) / Fold change /veh DDX43 (11728927_at) / RFU KRT8 (11758188_x_at) / Fold change /veh KRT8 (11758188_x_at) / RFU NKD1 (11759106_at) / Fold change /veh NKD1 (11759106_at) / RFU SRD5A1 (11742802_a_at) / Fold change /veh SRD5A1 (11742802_a_at) / RFU TPSAB1 /// TPSB2 (11721975_s_at) / Fold change /veh TPSAB1 /// TPSB2 (11721975_s_at) / RFU GSTM3 (11746129_a_at) / Fold change /veh GSTM3 (11746129_a_at) / RFU IL23R (11737362_x_at) / Fold change /veh IL23R (11737362_x_at) / RFU TMEM51 (11727254_a_at) / Fold change /veh TMEM51 (11727254_a_at) / RFU PIWIL2 (11732686_x_at) / Fold change /veh PIWIL2 (11732686_x_at) / RFU ORM1 (11744905_x_at) / Fold change /veh ORM1 (11744905_x_at) / RFU CCDC152 (11743942_at) / Fold change /veh CCDC152 (11743942_at) / RFU ECM1 (11717891_a_at) / Fold change /veh ECM1 (11717891_a_at) / RFU IL23R (11748794_a_at) / Fold change /veh IL23R (11748794_a_at) / RFU TNFAIP8L3 (11732012_x_at) / Fold change /veh TNFAIP8L3 (11732012_x_at) / RFU MBOAT4 (11741988_at) / Fold change /veh MBOAT4 (11741988_at) / RFU 11764193_at / Fold change /veh 11764193_at / RFU TMEM53 (11763286_at) / Fold change /veh TMEM53 (11763286_at) / RFU MAGEB2 (11727129_at) / Fold change /veh MAGEB2 (11727129_at) / RFU TMEM200A (11744735_a_at) / Fold change /veh TMEM200A (11744735_a_at) / RFU CCDC152 (11751479_a_at) / Fold change /veh CCDC152 (11751479_a_at) / RFU FAM211A (11726209_a_at) / Fold change /veh FAM211A (11726209_a_at) / RFU RGS16 (11746705_a_at) / Fold change /veh RGS16 (11746705_a_at) / RFU VCAN (11755009_s_at) / Fold change /veh VCAN (11755009_s_at) / RFU RHOB (11743442_s_at) / Fold change /veh RHOB (11743442_s_at) / RFU RGS16 (11720943_a_at) / Fold change /veh RGS16 (11720943_a_at) / RFU RGS16 (11720944_at) / Fold change /veh RGS16 (11720944_at) / RFU, VPS4B / Fold change vs veh, VPS4B / RFU, CREB1 / Fold change vs veh, CREB1 / RFU, DNAJC13 / Fold change vs veh, DNAJC13 / RFU, GNAQ / Fold change vs veh, GNAQ / RFU, CDK5R1 / Fold change vs veh, CDK5R1 / RFU, ZRANB3 / Fold change vs veh, ZRANB3 / RFU, CUL4A / Fold change vs veh, CUL4A / RFU, CCNY / Fold change vs veh, CCNY / RFU, UFL1 / Fold change vs veh, UFL1 / RFU, COG3 / Fold change vs veh, COG3 / RFU, DIAPH2 / Fold change vs veh, DIAPH2 / RFU, SKA2 / Fold change vs veh, SKA2 / RFU, AFF3 / Fold change vs veh, AFF3 / RFU, LMF1 / Fold change vs veh, LMF1 / RFU, IPO11 / Fold change vs veh, IPO11 / RFU, DFFB / Fold change vs veh, DFFB / RFU, FOXP1 / Fold change vs veh, FOXP1 / RFU, CARD8 / Fold change vs veh, CARD8 / RFU, STRN3 / Fold change vs veh, STRN3 / RFU, ADK / Fold change vs veh, ADK / RFU, RASSF2 / Fold change vs veh, RASSF2 / RFU, WIPF1 / Fold change vs veh, WIPF1 / RFU, LARP1B / Fold change vs veh, LARP1B / RFU, RASA1 / Fold change vs veh, RASA1 / RFU, RB1 / Fold change vs veh, RB1 / RFU, PPFIA1 / Fold change vs veh, PPFIA1 / RFU, MAT2A / Fold change vs veh, MAT2A / RFU, CCT5 / Fold change vs veh, CCT5 / RFU, WDR92 / Fold change vs veh, WDR92 / RFU, CUX1 / Fold change vs veh, CUX1 / RFU, TTC7A / Fold change vs veh, TTC7A / RFU, TMEM135 / Fold change vs veh, TMEM135 / RFU, DEPTOR / Fold change vs veh, DEPTOR / RFU, CPM / Fold change vs veh, CPM / RFU, DNAJB6 / Fold change vs veh, DNAJB6 / RFU, CACNA2D3 / Fold change vs veh, CACNA2D3 / RFU, DTX4 / Fold change vs veh, DTX4 / RFU, TFCP2 / Fold change vs veh, TFCP2 / RFU, GMCL1 /// GMCL1P1 / Fold change vs veh, GMCL1 /// GMCL1P1 / RFU, AEBP2 / Fold change vs veh, AEBP2 / RFU, SNHG1 /// SNORD22 /// SNORD25 /// SNORD26 /// SNORD27 /// SNORD28 /// SNORD29 /// SNORD31 / Fold change vs veh, SNHG1 /// SNORD22 /// SNORD25 /// SNORD26 /// SNORD27 /// SNORD28 /// SNORD29 /// SNORD31 / Fold change (Aza/veh), C12orf56 (ProbeSet 11735607_a_at) / Fold change (ACY-1035/veh), C12orf56 (ProbeSet 11735607_a_at) / Fold change (Aza/veh), FGFR1OP (ProbeSet 11751329_s_at) / Fold change (ACY-1035/veh), FGFR1OP (ProbeSet 11751329_s_at) / Fold change (Aza/veh), VPS36 (ProbeSet 11739960_a_at) / Fold change (ACY-1035/veh), VPS36 (ProbeSet 11739960_a_at) / RFU SYPL1 (11715823_x_at) / Fold change /veh SYPL1 (11715823_x_at) / RFU IGFBP7 (11715501_s_at) / Fold change /veh IGFBP7 (11715501_s_at) / RFU REEP3 (11722064_at) / Fold change /veh REEP3 (11722064_at) / RFU IGLL1 (11728026_x_at) / Fold change /veh IGLL1 (11728026_x_at): dose or concentration left out as unconfirmed. As to conditions: MV-4-11 cells, 48 hours.

For the molecule `Nc1ccc(-c2cccs2)cc1NC(=O)c1ccc2c(c1)cc(C1CC1)n2CCN1CCOCC1` [ACY-1035], the “Fold change /veh IGFBP7 (11715501_s_at)” value stood at 0.33.
